From patent US20050009837A1, “Modulators of lipid metabolism and methods of use” (City of Hope, priority 2003, published 2005)

How the values were obtained:
[1] = system: SREBP-1c expression; assay: Real-time PCR of SREBP-1c expression in HepG2 cells; assay type: cell-based, human; conditions: Clotrimazole 10 μM plus T0901317 100 nM, 24 hours
Protocol: Real time PCR was then performed on cDNA derived from RNA isolated form the treated HepG2 cells as follows. Real time quantitative PCR assays were performed using an Applied Biosystems 7700 sequence detector (Applied Biosystems). Each reaction mixture contained 50 ng cDNA, 1.25 pmol each forward and reverse primer, and […] 2× SYBR Green PCR master mix (Applied Biosystems) in a final volume of 25 μl. The PCR conditions were 50° C. for 2 min, 95° C. for 10 min, and 40 cycles of 95° C. for 15 sec and 60° C. for 1 min. Samples were run in duplicate for each primer pair. Expression of glyceraldehyde-3-phosphate dehydrogenase (GAPDH) was analyzed in parallel as an internal control. Each sample was normalized to GAPDH and is represented in the Figure showing the results as arbitrary units with the expression levels in untreated cells assigned a value of one. The primer sequences are as follows: human SREBP-1c forward [NT] ID NO:1); human SREBP-1c reverse [NT] ID NO:2); human GAPDH forward [NT] ID NO:3) and human GAPDH reverse [NT] ID NO:4).

[2] = molecular target: PPARα (Homo sapiens, UniProt Q07869); assay: PPARα activity (data not shown); assay type: cell-based
Sequence of PPARα (Q07869 whole entry, species assumed): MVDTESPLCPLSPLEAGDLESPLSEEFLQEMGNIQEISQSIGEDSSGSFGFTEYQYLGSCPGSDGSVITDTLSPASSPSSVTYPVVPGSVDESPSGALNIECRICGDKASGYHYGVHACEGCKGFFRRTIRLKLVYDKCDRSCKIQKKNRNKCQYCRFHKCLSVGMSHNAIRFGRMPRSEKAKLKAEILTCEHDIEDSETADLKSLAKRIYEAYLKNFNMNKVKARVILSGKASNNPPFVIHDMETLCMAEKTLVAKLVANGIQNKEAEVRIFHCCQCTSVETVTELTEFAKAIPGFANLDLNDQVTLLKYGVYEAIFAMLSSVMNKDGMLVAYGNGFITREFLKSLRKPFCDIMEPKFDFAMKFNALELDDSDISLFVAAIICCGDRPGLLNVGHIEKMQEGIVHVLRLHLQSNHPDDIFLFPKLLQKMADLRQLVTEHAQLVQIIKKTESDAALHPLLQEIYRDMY

[3] = molecular target: mouse PXR (Mus musculus, UniProt O54915); conditions: cited from earlier work
Sequence of mouse PXR (O54915 whole entry, the tested form may be a part): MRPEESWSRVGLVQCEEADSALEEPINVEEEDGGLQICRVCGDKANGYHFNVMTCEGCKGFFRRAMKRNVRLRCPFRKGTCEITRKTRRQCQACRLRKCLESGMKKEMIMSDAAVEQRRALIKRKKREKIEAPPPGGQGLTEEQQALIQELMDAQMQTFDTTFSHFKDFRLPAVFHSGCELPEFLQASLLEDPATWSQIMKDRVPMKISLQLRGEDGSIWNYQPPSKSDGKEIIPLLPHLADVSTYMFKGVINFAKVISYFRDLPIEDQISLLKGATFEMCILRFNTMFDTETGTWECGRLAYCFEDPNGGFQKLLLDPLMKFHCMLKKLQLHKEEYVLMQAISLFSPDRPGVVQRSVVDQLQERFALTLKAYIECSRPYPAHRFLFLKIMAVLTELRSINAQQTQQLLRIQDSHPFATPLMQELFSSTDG

[4] = molecular target: T1, LXRα-RXR heterodimers and receptor interaction domains of coactivator SRC1 (Homo sapiens, UniProt Q13133); assay: LXR-coactivator association, VP-L-hLXRα / L-hRXRα / GAL4-SRC1 in CV-1 cells; assay type: cell-based; conditions: 20 μM, coactivator GAL4-SRC1, CV-1 cells
T1 construct: expressed in transfected cells; host or cells: CV-1 cells
T1 sequence (Q13133 209-447 limits assumed): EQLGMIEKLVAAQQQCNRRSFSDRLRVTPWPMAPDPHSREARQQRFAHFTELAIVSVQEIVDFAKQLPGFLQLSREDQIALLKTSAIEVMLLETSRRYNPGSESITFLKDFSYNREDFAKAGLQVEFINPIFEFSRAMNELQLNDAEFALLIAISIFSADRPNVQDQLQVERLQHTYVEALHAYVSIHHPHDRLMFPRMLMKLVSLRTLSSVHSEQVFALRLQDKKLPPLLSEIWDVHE
T1 sequence (P19793 227-458 partner limits assumed): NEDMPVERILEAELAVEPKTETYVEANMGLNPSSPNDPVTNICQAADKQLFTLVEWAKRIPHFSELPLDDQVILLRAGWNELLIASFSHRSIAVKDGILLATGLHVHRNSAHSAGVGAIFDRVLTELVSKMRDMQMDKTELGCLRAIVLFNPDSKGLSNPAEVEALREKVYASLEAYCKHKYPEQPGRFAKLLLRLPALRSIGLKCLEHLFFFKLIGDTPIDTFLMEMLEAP
Protocol: CV-1 cells were grown in DMEM supplemented with 10% resin-charcoal stripped fetal bovine serum, 50 U/ml penicillin G and 50 μg/ml streptomycin sulfate at 37° C. in 5% CO2. Cells were plated to 50-80% confluence one day prior to transfection using phenol red-free DMEM-FBS. The cells were transfected by lipofection using N-[1-(2,3-dioleoyloxy)propyl]-N,N,N-ammonium methyl sulfate according to manufacturer's instructions (Boehringer Mannheim).
Genes encoding the following full-length proteins, which are suitable for use in the studies described herein, were cloned into pCMX: human RXRα (Gene Bank accession X52773) and human LXRα (GenBank accession U22662). The cells were transfected with CMX-βgal and luciferase constructs. The CMX-βGal construct contained the ligand binding domain of human RXR (hRXRα) and the ligand binding domain of human LXRα (hLXRα) as indicated in FIG. 1. The luciferase reporter construct (LXREx3 TK-Luc) contained the herpes virus thymidine kinase promoter (−105/+51) linked to three copies of the response element LXRE. After transfection, the cells were treated with 20 μM of a synthetic azole test compound or vehicle alone for 40 hours in phenol red-free DMEM-FBS.
VP-L-hLXRα contains the transactivation domain of Herpes VP16, linked to the LBD of human LXRα, L-hRXRα is the LBD of human RXRα. UASGx4 TK-Luc was the reporter gene, and the assay additionally included the coactivator GAL4-SRC1. Treatment with 20 μM azole compound as indicated was able to inhibit interactions between LXRα-RXR heterodimers and the receptor interaction domains from the coactivator SRC1.

[5] = molecular target: T2, RXR (Homo sapiens, UniProt P19793); assay: Transient transfection assay RXR LBD alone, UASGx4 TK Luc reporter, CV-1 cells; assay type: cell-based; conditions: lipid-stripped serum
T2 construct: transfecting CV-1 cells with either the RXR LBD alone; expressed in transfected cells; host or cells: CV-1 cells
Protocol: (§1) Synthetic compounds were screened in an effort to find more specific LXR inhibitors. CV-1 cells were maintained and transfected using known methods. Forman et al., Cell 81: 687-693, 1995. CV-1 cells were transiently transfected with Gal-hLXRα, the RXR LBD, the UASGx4 TK Luc reporter and CMX-β-gal as an internal control, either in standard or in lipid-stripped serum. After transfection, cells were treated for approximately 40 hours with phenol red-free DMEM-FBS containing the indicated compounds at the following concentrations: T0901317 (100 nM), Clotrimazole (10 μM), S883417(10 μM) and S100250 (10 μM), unless otherwise specified. After exposure to ligand, the cells were harvested and assayed for luciferase and β-galactosidase activity. The luciferase activity was normalized to the internal β-galactosidase control (reporter activity).
(§2) The ability of these compounds to repress LXRα and LXRβ was compared by transfecting CV-1 cells with either the RXR LBD alone or the RXR LBD together with either Gal-LXRα or Gal-LXRβ.

[6] = system: CV-1 cells; assay: Cytotoxicity in transfected CV-1 cells; conditions: T0901317 100 nM; Clotrimazole, S883417, S100250 10 μM; approximately 40 hours
Protocol: as §1

[7] = molecular target: T3, LXRα (Homo sapiens, UniProt Q13133); assay: Transient transfection assay Gal-hLXRα + RXR LBD, UASGx4 TK Luc reporter, CV-1 cells; assay type: cell-based
T3 construct: expressed in transfected cells; host or cells: CV-1 cells
T3 sequence (Q13133 209-447 limits assumed): T1 sequence (Q13133 209-447 limits assumed)
T3 sequence (P19793 227-458 partner limits assumed): T1 sequence (P19793 227-458 partner limits assumed)
Protocol: as §1, §2
Transfections were performed as described above, with increasing concentrations of Clotrimazole.

effect on PPARα activity [2]: no effect
effect on RXR [5]: no effect
repression of LXRα activity ([7]; 10 μM, approximately 40 hours, lipid-stripped serum): powerful antagonist
antagonist potency LXRα compared with LXRβ ([7]; dose-response, FIG. 5): more potent antagonist of LXRα than LXRβ
EC50 ([7]; dose-response, increasing concentrations, read-out: EC50 for repression of LXRα constitutive activity): ~10 µM
SMILES: Clc1ccccc1C(c1ccccc1)(c1ccccc1)n1ccnc1 [Clotrimazole]
SREBP-1c expression compared to T0901317 alone [1]: significantly reduced
activity on mouse PXR [3]: agonist
inhibition of LXR-coactivator association [4]: inhibition of LXR-coactivator association
cytotoxicity [6]: No cytotoxicity
